Measured values reported in BindingDB's records for doi:10.7270/Q2319T8T (The Scripps Research Institute Molecular Screening Center, 2007).

Molecular target: Steroidogenic factor 1 (Homo sapiens, UniProt Q13285)
Experiment: SF-1 inhibitor potency, dose response, cell-based, CHO-K1, Gal4-SF-1 LBD, luciferase luminescence (AID 600)
[1] = inactive by the depositor's call

Chain of Steroidogenic factor 1 (Q13285 whole entry, the tested form may be a part): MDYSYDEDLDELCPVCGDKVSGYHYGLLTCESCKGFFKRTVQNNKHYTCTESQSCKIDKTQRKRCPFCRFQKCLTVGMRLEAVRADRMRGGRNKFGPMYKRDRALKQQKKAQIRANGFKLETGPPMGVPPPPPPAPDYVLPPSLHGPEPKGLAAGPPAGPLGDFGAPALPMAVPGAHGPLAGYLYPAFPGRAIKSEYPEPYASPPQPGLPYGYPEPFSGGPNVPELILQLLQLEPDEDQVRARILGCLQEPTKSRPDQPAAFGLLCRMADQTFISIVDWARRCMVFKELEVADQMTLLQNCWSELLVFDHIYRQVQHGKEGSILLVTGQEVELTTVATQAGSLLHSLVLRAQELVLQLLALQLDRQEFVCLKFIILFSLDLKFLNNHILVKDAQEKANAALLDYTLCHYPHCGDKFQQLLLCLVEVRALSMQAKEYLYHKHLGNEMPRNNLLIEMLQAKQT

| IC50 [µM] | IC50 [1] [µM] | SMILES |
| --- | --- | --- |
| 4.19 | – | C=CS(=O)(=O)c1ccc(Oc2ccc(S(=O)(=O)C=C)cc2)cc1 [1-ethenylsulfonyl-4-(4-ethenylsulfonylphenoxy)benzene] |
| 8.89 | – | c1ccc(-c2noc(-c3ccc4ccccc4c3)n2)cc1 [5-(2-naphthalenyl)-3-phenyl-1,2,4-oxadiazole] |
| 8.33 | – | Cc1cc(C)n(-c2nc(NC(C)C)nc(NC(C)C)n2)n1 [6-(3,5-Dimethyl-pyrazol-1-yl)-N,N'-diisopropyl-[1,3,5]triazine-2,4-diamine] |
| – | 29.7 | COc1cc2c(C#N)c(N3CCN(c4ccccc4OC)CC3)nc(N)c2c(N)n1 [1,8-diamino-6-methoxy-3-(4-(2-methoxyphenyl)piperazin-1-yl)-2,7-naphthyridine-4-carbonitrile] |
| – | 10.4 | Cn1c(-c2ccco2)nc2cc3ccccc3cc21 [2-(2-furanyl)-3-methylbenzo[f]benzimidazole] |
| 0.189 | – | CCOc1ccc(-c2nc(CSCC(=O)NCc3ccco3)c(C)o2)cc1 [2-({[2-(4-ethoxyphenyl)-5-methyl-1,3-oxazol-4-yl]methyl}thio)-N-(2-furylmethyl)acetamide] |
| 6.52 | – | COc1ccccc1-c1nnc(Nc2nc3c(OC)cccc3s2)o1 [(4-methoxy-1,3-benzothiazol-2-yl)-[5-(2-methoxyphenyl)-1,3,4-oxadiazol-2-yl]amine] |
| > 3.67 | – | COc1cccc(-c2nnc(NC(=O)c3ccc(S(=O)(=O)N4CC(C)OC(C)C4)cc3)o2)c1 (stereo not given) [4-(2,6-dimethylmorpholin-4-yl)sulfonyl-N-[5-(3-methoxyphenyl)-1,3,4-oxadiazol-2-yl]benzamide] |
| 2.64 | – | Cc1nnc(Sc2nc(Sc3nnc(C)s3)nc(N3CCN(C)CC3)n2)s1 [2-(4-Methyl-piperazin-1-yl)-4,6-bis-(5-methyl-[1,3,4]thiadiazol-2-ylsulfanyl)-[1,3,5]triazine] |
| – | 36 | COc1ccc(OC)c(NS(=O)(=O)c2ccc(N3CCCC3=O)cc2)c1 [MLS000079343] |
| > 99 | – | O=C(NCCCN1CCOCC1)c1csc2c1CCCC2 [MLS000093382] |
| > 99 | – | c1ccc(-n2nnc3c(N4CCOCC4)ncnc32)cc1 [4-(3-phenyl-7-triazolo[4,5-d]pyrimidinyl)morpholine] |
| > 3.67 | – | CCOC(=O)c1c(N)sc(C(=O)Nc2ccc3c(c2)OCO3)c1C [2-amino-5-(1,3-benzodioxol-5-ylcarbamoyl)-4-methyl-thiophene-3-carboxylic acid ethyl ester] |
| 6.02 | – | COc1cc2c(cc1NC(=O)CSc1nnnn1-c1ccccc1)oc1ccccc12 [MLS000082182] |
| 5.27 | – | O=S(=O)(Nc1cccc2ncccc12)c1cccs1 [MLS000057468] |
| 6.19 | – | CCn1c2ccccc2c2cc(Nc3cc(C)nc4ncnn34)ccc21 [(9-ethylcarbazol-3-yl)-(5-methyl-[1,2,4]triazolo[1,5-a]pyrimidin-7-yl)amine] |
| 4.65 | – | O=C(CC=Nc1cccc(F)c1)c1ccc2c(c1)OCO2 |
| 10.4 | – | COc1ccccc1-c1nnc2n1N=C(c1ccc(O)c(O)c1)CS2 [(4E)-4-[3-(2-methoxyphenyl)-5H-[1,2,4]triazolo[3,4-b][1,3,4]thiadiazin-6-ylidene]-2-oxidanyl-cyclohexa-2,5-dien-1-one] |
| 0.813 | – | Cc1oc2cc3c(C(=O)OCCN(C)C)c(C)oc3cc2c1C(=O)OCCN(C)C [2,6-Dimethyl-benzo[1,2-b;4,5-b']difuran-3,7-dicarboxylic acid bis-(2-dimethylamino-ethyl) ester] |
| 9.07 | – | Cn1cc(C=Nn2cnc3scc(-c4ccc(Cl)cc4)c3c2=O)c2ccccc21 [5-(4-chlorophenyl)-3-[(1-methyl-3-indolyl)methylideneamino]-4-thieno[2,3-d]pyrimidinone] |
| 3.13 | – | Cc1cc(C(=O)Nc2cccc(C(=O)O)c2)oc1C [3-[(4,5-dimethyl-2-furoyl)amino]benzoic acid] |
| 21.3 | – | CSC1=NC2=C(C(=O)CC(C)(C)C2)C(c2ccc(Cl)cc2)C1C#N (stereo not given) [SMR000102109] |
| > 3.67 | – | Cc1cc(C=Nn2cnnc2)c(C)n1-c1ccc(OCc2ccc(F)cc2)cc1 [MLS000112167] |
| 3.91 | – | c1c2c(cc3sc(N4CCCCC4)nc13)OCCO2 [2-(1-piperidinyl)-6,7-dihydro-[1,4]dioxino[2,3-f][1,3]benzothiazole] |
| 5.24 | – | C[S+]([O-])c1nc(-c2ccc(Br)cc2)cc(-c2ccccc2)c1C#N (stereo not given) [6-(4-bromophenyl)-2-(methylsulfinyl)-4-phenylnicotinonitrile] |
| 4.15 | – | COc1ccc(-c2noc(CCCC(=O)NCCc3ccccc3)n2)cc1OC [4-[3-(3,4-dimethoxyphenyl)-1,2,4-oxadiazol-5-yl]-N-(2-phenylethyl)butanamide] |
| 5.55 | – | Cc1oc(-c2ccc3c(c2)OCCO3)cc1C(=O)O [5-(2,3-dihydro-1,4-benzodioxin-6-yl)-2-methyl-3-furancarboxylic acid] |

| IC50 [µM] | IC50 [1] [µM] | SMILES |
| --- | --- | --- |
| 5.76 | – | Cc1ccc(-c2csc3ncnc(Sc4nnc(CN5CCCCCC5=O)o4)c23)cc1 [1-[[5-[5-(4-methylphenyl)thieno[2,3-d]pyrimidin-4-yl]sulfanyl-1,3,4-oxadiazol-2-yl]methyl]azepan-2-one] |
| < 0.00503 | – | CC1CCCN(c2ncnc3c2cnn3-c2ccc(Cl)cc2)C1 (stereo not given) [1-(4-chlorophenyl)-4-(3-methyl-1-piperidinyl)pyrazolo[3,4-d]pyrimidine] |
| 0.713 | – | O=S1(=O)C=C(Sc2nc3ccccc3s2)c2ccccc21 [2-[(1,1-dioxido-1-benzothien-3-yl)thio]-1,3-benzothiazole] |
| – | 13.2 | COc1ccc2c(c1)[nH]c1c(N3CCN(Cc4ccc5c(c4)OCO5)CC3)ncnc12 [4-[4-(1,3-benzodioxol-5-ylmethyl)piperazin-1-yl]-7-methoxy-5H-pyrimido[5,4-b]indole] |
| 0.069 | – | CC(C)(C)c1ccc(-c2noc(CCC(N)=O)n2)cc1 [3-[3-(4-tert-butylphenyl)-1,2,4-oxadiazol-5-yl]propanamide] |
| 5.62 | – | Clc1ccc(-c2nc(-c3ccccn3)no2)cc1Cl [5-(3,4-dichlorophenyl)-3-(2-pyridinyl)-1,2,4-oxadiazole] |
| 2.24 | – | c1ccc(N=C2N=C(Nc3ccccn3)c3ccccc32)nc1 [N-pyridin-2-yl-3-pyridin-2-yliminoisoindol-1-amine] |
| > 3.67 | – | Oc1c(CN2CCCCC2)cc(Br)c2cccnc12 [5-bromanyl-7-(piperidin-1-ylmethyl)quinolin-8-ol] |
| 0.511 | – | CCOc1ccc(OCc2cccc(C(=O)O)c2)cc1 [3-[(4-ethoxyphenoxy)methyl]benzoic acid] |
| 4.32 | – | CCc1ccc(-c2nc(CSCC(=O)NCCCN3CCCC3=O)c(C)o2)cc1 [2-({[2-(4-ethylphenyl)-5-methyl-1,3-oxazol-4-yl]methyl}thio)-N-[3-(2-oxopyrrolidin-1-yl)propyl]acetamide] |
| 5.45 | – | COCCn1c(C)cc(C(=O)CSc2nnc(C)s2)c1C [1-[1-(2-methoxyethyl)-2,5-dimethyl-1H-pyrrol-3-yl]-2-[(5-methyl-1,3,4-thiadiazol-2-yl)thio]ethanone] |
| > 11 | – | CCC(NC(=O)Nc1nnc(C(F)(F)F)s1)(C(F)(F)F)C(F)(F)F |
| 8.79 | – | CCCC(=O)N1CCN(c2ccc(NC(=O)c3cc4ccccc4o3)cc2Cl)CC1 [MLS000096729] |
| 0.69 | – | O=C(O)c1cccc(COc2ccccc2Cl)c1 [3-[(2-chloranylphenoxy)methyl]benzoic acid] |
| 9.03 | – | COc1ccc2[nH]c3nc(SC(C)C)nnc3c2c1 [8-methoxy-3-propan-2-ylsulfanyl-5H-[1,2,4]triazino[5,6-b]indole] |
| > 3.67 | – | Clc1cccc(-c2nc(-c3ccccn3)no2)c1 [2-[5-(3-Chloro-phenyl)-[1,2,4]oxadiazol-3-yl]-pyridine] |
| > 3.67 | – | Cc1nc(N2CCN(c3ccccc3)CC2)nc(O)c1Cc1cccc2ccccc12 [MLS000084491] |
| > 3.67 | – | CCCOc1ccc(-c2nnc(-c3ccco3)o2)cc1 [2-(2-furanyl)-5-(4-propoxyphenyl)-1,3,4-oxadiazole] |
| 9.38 | – | COc1ccc(CCNc2ncnc3c2oc2ccccc23)cc1OC [MLS000041708] |
| 2.55 | – | Cn1nc(CC(=O)Nc2ccc(N3CCN(C(=O)OC(C)(C)C)CC3)cc2)c2ccccc2c1=O [4-[4-[[2-(3-methyl-4-oxo-1-phthalazinyl)-1-oxoethyl]amino]phenyl]-1-piperazinecarboxylic acid tert-butyl ester] |
| – | 15.1 | O=C(CSC1=NCCS1)Nc1ccnc2ccccc12 [2-(4,5-dihydro-1,3-thiazol-2-ylsulfanyl)-N-quinolin-4-yl-ethanamide] |
| > 11 | – | Cc1ccc(C(=O)CC=Nc2ccccn2)cc1 [(E)-1-(4-methylphenyl)-3-(2-pyridinylamino)-2-propen-1-one] |
| > 1.22 | – | COc1ccc(C(=O)NC(=O)Nc2cc(C)ccn2)cc1 [4-methoxy-N-[(4-methyl-2-pyridyl)carbamoyl]benzamide] |
| > 33 | – | COc1cc(CC(NC(C)=O)C(=O)NC2CCN(c3nc(C)cc(C)c3C#N)CC2)cc(OC)c1 (stereo not given) [2-Acetylamino-N-(3'-cyano-4',6'-dimethyl-3,4,5,6-tetrahydro-2H-[1,2']bipyridinyl-4-yl)-3-(3,5-dimethoxy-phenyl)-propionamide] |
| 0.986 | – | CC[C@]1(O)CC2C[N@](CCc3c([nH]c4ccccc34)[C@@](C(=O)OC)(c3cc4c(cc3OC)N(C)[C@H]3[C@@](O)(C(=O)OC)[C@H](OC(C)=O)[C@]5(CC)C=CCN6CC[C@]43[C@@H]65)C2)C1 [(vinblastine) methyl 12-ethyl-4-[17-ethyl-17-hydroxy-13-methyloxycarbonyl-(13S,15R,17S)-1,11-diazatetracyclo[13.3.1.04,12.05,10]nonadeca-4(12),5,7,9-tetraen-13-yl]-10-hydroxy-5-methoxy-8-methyl-11-methylcarbonyloxy-(10S,11R,12R)-8,16-diazapentac sulfuric acid] |
| > 3.67 | – | CN(CC1CCCO1)S(=O)(=O)c1ccc(C(=O)Nc2nc(-c3ccccn3)cs2)cc1 (stereo not given) [4-[methyl(2-oxolanylmethyl)sulfamoyl]-N-[4-(2-pyridinyl)-2-thiazolyl]benzamide] |
| 8.52 | – | Cc1cnc(NC(=O)CN2CCN(c3ccccn3)CC2)s1 [MLS000035284] |

| SMILES | IC50 [µM] | IC50 [1] [µM] |
| --- | --- | --- |
| Cc1c2ccncc2c(C)c2c1[nH]c1ccccc12 [5,11-dimethyl-2H-pyrido[4,3-b]carbazole] | > 3.67 | – |
